We go through two compounds from PMC10451034, “Highly Efficient Photosensitizers with Molecular Vibrational Torsion for Cancer Photodynamic Therapy” (ACS Central Science, 2023).

As a reminder, the IC50 is the point on the concentration scale where inhibition reaches its midpoint.

The nature of data set [1]: UV-vis absorption, fluorescence emission, absolute fluorescence quantum yield and fluorescence lifetime. Format: physicochemical. The method, then:
First, the UV–vis absorption and fluorescence emission spectra of the series of compounds were measured and analyzed. […] Concurrently, the Stokes shifts of all four compounds were more than 60 nm (Figure 2a,b and Table 1), which could effectively improve the signal-to-noise ratio (SNR) of fluorescence compared to the ordinary TCy7. The fluorescence lifetimes of all four compounds were within 2 ns, indicating no delayed fluorescence generation (Figure 2c and Table 1). […]
Materials and Instrumentation
All the general chemicals used in this paper are purchased from Energy Chemical Co. and Innochem Chemical Co. unless otherwise specified. All solvents were […]
analytically pure. […]
All the other solvents and reagents used in this study were of analytical grade. All the BALB/c mice were purchased from Liaoning […]
III 500 spectrometers. Absorption and emission spectra for all the compounds were achieved on the Agilent Technologies CARY 60 UV -Vis spectrophotometer and VAEIAN CARY Eclipse fluorescence spectrop hotometer (Serial No. FL0812 -M018), […]
respectively. Unless otherwise specified, all spectroscopic tests were performed in a quartz cell (10×10 mm). Fluorescence quantum yield of all the compounds were measured on the HAMAMATSU absolute fluorescence quantum yield spectrometer (Serial No. C11347). Triplet lifetime of compounds were acquired on LP980 laser flash photolysis spectrometer (Edinburgh Instruments, U.K.). The cell confocal laser scanning microscope (CLSM) images were all obtained by using Olympus FV3000 confocal laser scanning microscope. […]
Figure 4, Figure S6 and Figure S7). The spin-orbital coupling (SOC) values between the S1/S1V and T2 were calculated with ORCA 4.13. Hole-Electron analysis was carried […]
ISC rate constants calculation […]
Triplet lifetime measurements
The triplet life of QTCy7-R was measured by LP980 laser flash photolysis spectrometer (Edinburgh Instruments Ltd.) in combination with a Nd:YAG laser (Surelite I-10, Continuum Electro-Optics, Inc.). The oxygen in the sample was removed by aerating nitrogen for 30 min. The samples (5 μM) were excited by a 610 nm laser pulse (1 Hz, 100 mJ per pulse, fwhm ≈ 7 ns) at 300 K. The triplet state decay kinetics were measured at the maximum absorption wavelengths of each compound.
Fluorescence lifetime and femtosecond time-resolved transient absorption spectra […]
The fluorescence lifetimes and femtosecond time-resolved transient absorption spectra of dyes were recorded on a freshly prepared samples using the time-correlated single photon counting (TCSPC) method (PicoQuant PicoHarp 300) at 300 K. The concentration is 10 μM, solvent is DCM.
Hepatoma carcinoma cells (HepG-2 cells), human mammary carcinoma (MCF-7) and mouse breast cancer cells (4T1) were maintained in Dulbecco’s modified Eagle’s

Data set [2] is described as follows: Singlet oxygen quantum yield by DPBF decay curve method. The conditions noted are these: in dichloromethane. Format: physicochemical. The method, then: Afterward, the singlet oxygen yields of the series of molecules were preliminarily measured and analyzed by the 1,3-diphenylisobenzofuran (DPBF) decay curve method (Figures 2d,e and S2). […] Meanwhile, in order to exclude the effect of the rigid structure, ΦΔ of a Cy7-like reference molecule (TCy7C) with a rigidified structure but absence of an oxygen atom was measured. The singlet oxygen yield of TCy7C was 2.2%, even lower than that of TCy7 under the same conditions (Figure S3). […]
Photoexcited singlet oxygen production was detected by employed 1,3-diphenylisobenzofuran (DPBF) as the indicator. The absorbance of DPBF at 415 nm was regulated to about 1.0 in DCM. And the samples were irradiated with 660 nm light for various times, then the absorption spectra of different time nodes were recorded.
The singlet oxygen quantum yield (ΦΔ) was calculated by the following equation:
Where “Φ” represent the singlet oxygen quantum yield , “sam” and “std” represent QTCy7-R and MB, respectively. “m” is the slope of the absorbance of DPBF at 415 nm with time, F=1–10-O.D. (O.D. is the absorbance of samples at 660 nm). […]

In a further data set the test system is HepG2 cells. Briefly: MTT cytotoxicity assay, HepG2. Format: cell-based, human. To be noted: Homo sapiens, HepG2, light or radiation study, HepG2, 660 nm irradiation 12 J/cm^2. An excerpt:
To further quantitatively explore the in vitro anticancer potency of QTCy7-R, the methyl thiazolyltetrazolium (MTT) assay was employed to detect cell viability. […] Next, we evaluated the cytotoxicity under dark conditions of this series of compounds at high concentrations (Figure 9e), as due to the characteristics of mitochondrial accumulation, QTCy7-Me and QTCy7-Ph might lead to mitochondrial depolarization and apoptosis at high concentrations. However, its IC50 value could still reach about 60 μM, which was almost […] than those of all cyanine photosensitizers reported. […] The photocytotoxicity index value (dark IC50/light IC50) of QTCy7-Ac was >500, manifesting that QTCy7-Ac is a PS with high efficacy but low cytotoxicity, which is extremely promising in clinical application. […]
Cytotoxicity was tested by the reduction of methyl thiazolyl tetrazolium to formazan by succinic acid dehydrogenase in the mitochondria of living cells (MTT assay). HepG2 cells, MCF7 cells and 4T1 cells were seeded to 96-well microplates (Nunc, Denmark) with a density of 1 × 10^5 cells/mL cells in 100 μL DMEM medium and incubated at 37 °C for 24 h. When the cell density reached about 70%, the QTCy7-R with different concentrations (4, 3, 2, 1.5, 1, 0.75, 0.5, 0.25, 0 μM) in PBS were added to the wells of cells in dark condition, respectively. For light groups, the cell incubation conditions were the same as those of the dark group and the cells were further incubated for 2 h, subsequently, the cells were subjected to 660 nm irradiation (20 mW/cm2) for different time (10 min, 5 min and 2.5 min) corresponding to different light doses (12 J/cm2, 6 J/cm2 and 3 J/cm2). Then all the cells were incubated for 12 h, after which the MTT solution in DMEM (0.5 mg/ml, 100 μL) was added to each well and the cells were incubated at 37 °C for another 4 h. The MTT solution was carefully removed and 100 μL DMSO was added to dissolve formazan, and the absorbance of each well was measured by a multifunctional microplate reader at 570 nm and 630 nm. The cell viability was obtained by the following equation: […]
Where “OD” represent the absorbance at 570 nm and 630 nm, “ps” and “control” represent experimental groups and control groups, respectively. […]
In general terms: Tetrazolium dyes change colour on reduction, which living cells bring about.

Take `CCN1/C(=C/C=C/C=C/C=C/c2sc3ccccc3[n+]2CC)Sc2ccccc21` [TCy7, reference compound]: the “ΦF, absolute fluorescence quantum yield” value in data set [1] is listed as 19.3%. In data set [1] (in dichloromethane), the “Δλ, Stokes shift” value amounted to 23 nm; the “λabs, maximum absorption wavelength” value was 770 nm; the “λem, maximum emission wavelength” value was 793 nm; the “τS, fluorescence lifetime” value was determined as 1.54 ns. Besides, the “ΦΔ, singlet oxygen yield” value in data set [2] (DPBF method) is listed as 2.6%. The “ΦΔ, singlet oxygen quantum yield” value in data set [2] (methylene blue as standard, 660 nm irradiation) is listed as 0.026.

With `C=Cc1c(C)c2cc3nc(c(CC(=O)O)c4[nH]c(cc5nc(cc1[nH]2)C(C)=C5CC)c(C)c4C(=O)O)[C@@H](CCC(=O)O)[C@@H]3C` [Ce6, chlorin e6, reference compound], inhibition in the data set on HepG2 cells was half-maximal at 3.5 µM (IC50).
